Test results published in patent US9034876B2, “Treatment of chronic inflammation with a 1,2,4-triazolo [1,5a] pyridine derivative” (Cephalon, Inc., priority 2010, dated 2015).
Where two headings read alike, the source gives them in different places.

Key:
[1] = test system: carrageenan-induced inflammation; assay: Air pouch mouse model of carrageenan-induced inflammation; assay type: in vivo, Balb/c mice; details: 10, 30 and 55 mg/kg into the pouch, 24 hours, p<0.05 vs vehicle
Method: Balb/c mice were induced for air pouch initiation (see materials and methods) using sterile air. Carrageenan at 1% in saline was injected directly into the pouch followed by treatment with Compound A or dexamethasone (Dex) 1 hour later. One-hundred microliters of air pouch fluid was removed 24 hours post-administration. FIG. 5A: Depicts total cell count using 7-AAD exclusion via flow cytometeric analysis and BD TruCount beads. FIG. 5B: Depicts fluid supernatant IL-6 concentration as determined by Luminex® cytokine analysis. FIG. 5C: Depicts hemoglobin content as assessed by the Drabkin's assay. All data shown in the figures represent mean±SEM, and statistics were performed using 2-way ANOVA analysis, *p<0.05, N=5 mice per group tested. To test the impact of Compound A inhibition of JAK2 at the cellular level, the mouse air pouch model (APM) was utilized. Air-filled subcutaneous pouches were maintained under sterile conditions and injected with 1% carrageenan simultaneously with Compound A at 10, 30 and 55 mg/kg. Saline alone (vehicle) or dexamethasone at 1.5 mg/kg were used as controls. […] Briefly, Balb/c mice were injected s.c. with 4 ml of sterile air on day −5, baseline measurements were recorded and mice were randomized into groups. Mice entered the study upon air pouch maintenance by day −3 when 2 ml of sterile air is injected for air pouch maintenance. On day 0 mice were given a 1% carrageenan (Sigma, St. Louis, Mo.) injection suspended in saline directly into the air pouch. This induces a rapid inflammatory influx of primarily neutrophils and macrophage. The test compounds were provided in saline at mg/kg concentrations in 100 μl total volume and introduced directly into the air pouch simultaneously with the carrageenan injection, (1% carrageenan in saline). […] Cellular exudates were centrifuged, supernatants were processed for Luminex cytokine analysis, and the cell pellets were counted for total live and dead cells. […] Hemoglobin content was determined using the Drabkin's assay (Sigma, St. Louis, Mo.).

human JAK2 = human JAK2 (Homo sapiens, UniProt O60674); details: read-out: IC50, JAK2 kinase, isolated human enzyme; average±standard deviation of at least 4 determinations; 0.2 μM ATP
Method: IC50 values are reported as the average±standard deviation of at least 4 independent determinations.
The kinase activity of baculovirus-expressed human JAK kinases (JAK1, JAK2, JAK3 or TYK2) was measured using the time-resolved fluorescence (TRF) detection system as described elsewhere [17]. Each 96-well Costar high binding plate (Corning, Corning, N.Y.) was coated with 100 μl/well of 10 μg/ml neutravidin (Pierce Biotechnology, Rockford, Ill.) in TBS at 37° C. for 2 h, followed by 100 μl/well of 1 μg/ml 15-mer peptide substrate (biotinyl-amino-hexanoyl-[sequence]-amide, Infinity Biotech Research and Resource, Aston, Pa.) at 37° C. for 1 h. The kinase assay mixture (total volume=100 μl/well) consisting of 20 mM HEPES (pH 7.2), ATP (Km level for each kinase), 1 mM MnCl2, 0.1% BSA, and test Compound (diluted in DMSO; 2.5% DMSO final in assay) was added to the assay plate. The concentrations of ATP used were as follows: 0.2 μM ATP for JAK1, JAK2 and TYK2; 0.1 μM ATP for JAK3. Enzyme was added and the reaction was allowed to proceed for 20 min at RT. […] Plates were agitated for 10 min and the fluorescence of the resulting solution measured using the PerkinElmer EnVision® 2102 or 2104 multi-label plate reader. IC50 values were determined using the 4-parameter logistic model in XLFit® 4 (IDBS, Ltd., Guildford, UK).

[2] = CAIA model, total body mass; assay type: in vivo, female DBA/1 mice; details: all doses
Method: FIG. 3E: Depicts the effect of treatment on total body mass in a CAIA model
Acclimated mice were randomized, pre-bled and measured for baseline inflammation before any studies were initiated. On day 0, DBA/1 female mice were injected i.v. with […] of a saline solution containing 1.5 mg of a 10 mg/ml cocktail of arthritogenic monoclonal antibodies directed against different epitopes of collagen type II (Chondrex, Redmond, Wash.) suspended in saline. On day 3, mice were injected with 100 μl of 50 μg of E. coli 0111:B4 LPS (0.5 mg/ml stock) (Chondrex, Redmond, Wash.) i.p. and provided with gel food during recovery. Two days post-LPS treatment monitoring of arthritic paws began; peak arthritis usually occurred 2-3 days following LPS treatment. […] Arthritis clinical score tables can be found described elsewhere. […] All samples were kept at −80° C. until ready to assay. At about 4 weeks, mice were harvested for spleen, serum and arthritic paws for STAT and cytokine quantitation and histological analysis. […]

[3] = Compound quantification (PK) in plasma, paw and spleen of CAIA mice; assay type: in vivo; details: DBA/1, mouse, oral, day 20, mean±SEM, N=3; for concentration at 2 h: 2 hrs post-administration; for concentration at 6 h: 6 hrs post-administration
Method: FIG. 2B: Depicts the results of a PK (pharmacokinetic) study of Compound A, 55 mg/kg, 30 mg/kg and 10 mg/kg, p.o., s.i.d. (once daily), in the plasma, paw and spleen of treated mice, N=3 mice per group tested. The data shown in the figure represents the mean±SEM (standard error of the mean).
While the level of Compound A in the target tissue, i.e., the paw, was relatively low, the levels of Compound A were relatively constant between the two time points for the 55 mg/kg treatment group. […] The data (mean±SEM, N=3) represented in FIG. 2B is tabulated below:
Plasma and protein extraction from paw and spleen samples were submitted for quantitative analysis to determine the respective compound concentrations. Blood samples were collected into heparinized tubes and placed on wet ice until centrifuged (16,000×g, 5 minutes) to separate the plasma. Supernatant was collected and stored at −20° C. pending analysis. At the time of analysis, two volumes of cold acetonitrile containing an internal standard (alprenolol) were added to each sample which were then vortexed and centrifuged. The supernatants were removed, placed into an auto-sampler vial and the amount of compound present in the samples was analyzed by liquid chromatograph/mass spectrometry (LC-MS-MS). The concentration of compound in the samples was quantified against a mouse plasma standard curve made via serial dilution in a concentration range from 5 to 20,000 ng/mL. Samples containing concentrations greater than 10% above the top of the standard curve were diluted 1:10 with acetonitrile. The limit of detection for plasma, paw and spleen were <10 ng/ml.

phospho-STAT3 = assay: CIA model, paw phospho-STAT3; assay type: in vivo, female DBA/1 mice
Method: Female DBA/1 mice were injected with purified collagen type II in CFA i.d. (intradermal), then boosted with collagen type II in IFA, s.c., (subcutaneous) on day 21 followed by a day 28 LPS injection i.p. to induce arthritis (CIA). Mice that scored a ‘1’ or better for each paw were considered arthritic and entered into the study. Treatments started after 7-10 days of arthritis induction. Compound A was provided orally, b.i.d., for all doses tested; Dex was administered i.p. at 1.5 mg/kg, three times a week; and vehicle (PEG400+1% DMSO) was provided orally, b.i.d.
FIG. 4B: Depicts Phospho-STAT3 expression in arthritic paws for each treatment group.
A more detailed description of this method can be found described elsewhere (Lu et al, 2010, submitted for publication). Briefly, the front (including carpus) and back (including tarsus) right paws were collected and frozen in dry-ice cooled isopentane and stored at −80° C. until use. The paws were cut to 2 mm×2 mm segments and kept on dry-ice in round bottom polypropylene tubes. […] Protein concentration was measured using a BCA protein assay (Pierce, Rockford, Ill.) and adjusted to 3 mg/ml. […]

[4] = paw, 10 mg/kg p.o., read-out: concentration in paw
[5] = paw, 30 mg/kg p.o., read-out: concentration in paw
[6] = paw, 55 mg/kg p.o., read-out: concentration in paw
[7] = plasma, 10 mg/kg p.o., read-out: concentration in plasma
[8] = plasma, 30 mg/kg p.o., read-out: concentration in plasma
[9] = plasma, 55 mg/kg p.o., read-out: concentration in plasma
[10] = spleen, 10 mg/kg p.o., read-out: concentration in spleen
[11] = spleen, 30 mg/kg p.o., read-out: concentration in spleen
[12] = spleen, 55 mg/kg p.o., read-out: concentration in spleen

Sequence of human JAK2 (O60674 whole entry): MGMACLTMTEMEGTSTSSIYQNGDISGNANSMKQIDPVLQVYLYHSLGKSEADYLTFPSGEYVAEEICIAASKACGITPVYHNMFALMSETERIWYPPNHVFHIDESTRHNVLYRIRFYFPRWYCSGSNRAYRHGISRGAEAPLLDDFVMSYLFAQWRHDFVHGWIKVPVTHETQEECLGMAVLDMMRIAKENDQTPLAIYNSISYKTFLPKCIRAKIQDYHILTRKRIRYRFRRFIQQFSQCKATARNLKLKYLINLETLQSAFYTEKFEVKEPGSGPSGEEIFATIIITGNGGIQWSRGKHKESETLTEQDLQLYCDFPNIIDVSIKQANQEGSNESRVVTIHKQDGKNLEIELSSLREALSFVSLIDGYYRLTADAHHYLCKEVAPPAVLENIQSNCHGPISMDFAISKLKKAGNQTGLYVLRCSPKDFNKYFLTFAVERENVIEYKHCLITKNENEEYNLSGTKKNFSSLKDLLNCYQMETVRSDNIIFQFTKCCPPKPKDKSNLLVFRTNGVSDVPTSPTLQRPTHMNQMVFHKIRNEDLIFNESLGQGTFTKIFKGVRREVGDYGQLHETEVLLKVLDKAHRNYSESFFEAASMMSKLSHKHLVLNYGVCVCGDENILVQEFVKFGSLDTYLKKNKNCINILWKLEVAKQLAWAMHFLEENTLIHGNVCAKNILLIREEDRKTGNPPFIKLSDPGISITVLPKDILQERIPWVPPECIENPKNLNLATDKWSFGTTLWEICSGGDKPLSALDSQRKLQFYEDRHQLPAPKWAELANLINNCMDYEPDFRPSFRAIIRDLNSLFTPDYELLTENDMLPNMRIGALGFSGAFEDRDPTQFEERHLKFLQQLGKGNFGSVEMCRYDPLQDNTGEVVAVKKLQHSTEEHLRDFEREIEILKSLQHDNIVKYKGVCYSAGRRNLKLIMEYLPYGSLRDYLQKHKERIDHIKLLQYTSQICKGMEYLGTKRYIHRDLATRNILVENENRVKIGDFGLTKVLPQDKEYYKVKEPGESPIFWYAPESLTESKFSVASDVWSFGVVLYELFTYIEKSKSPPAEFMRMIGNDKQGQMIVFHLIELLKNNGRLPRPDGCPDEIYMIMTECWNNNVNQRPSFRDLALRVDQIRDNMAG

IC50 (human JAK2): 1.8 ± 0.6 nM | concentration at 2 h [3, 4]: 214 ± 12.4 ng/mL | concentration at 6 h [3, 4]: 172 ± 48.7 ng/mL | concentration at 2 h [3, 5]: 508 ± 213 ng/mL | concentration at 6 h [3, 5]: 376 ± 84.7 ng/mL | concentration at 2 h [3, 6]: 660 ± 81.1 ng/mL | concentration at 6 h [3, 6]: 472 ± 74.3 ng/mL | concentration at 2 h [3, 7]: 1160 ± 48.1 ng/mL | concentration at 6 h [3, 7]: 433 ± 56.7 ng/mL | concentration at 2 h [3, 8]: 2040 ± 693 ng/mL | concentration at 6 h [3, 8]: 1310 ± 258 ng/mL | concentration at 2 h [3, 9]: 3160 ± 456 ng/mL | concentration at 6 h [3, 9]: 1480 ± 138 ng/mL | concentration at 2 h [3, 10]: 673 ± 102 ng/mL | concentration at 6 h [3, 10]: 273 ± 50.4 ng/mL | concentration at 2 h [3, 11]: 1330 ± 113 ng/mL | concentration at 6 h [3, 11]: 1170 ± 395 ng/mL | concentration at 2 h [3, 12]: 3900 ± 427 ng/mL | concentration at 6 h [3, 12]: 2350 ± 433 ng/mL
Compound: CN1CCN(c2cccc(Nc3nc4c(-c5ccc(S(C)(=O)=O)cc5)cccn4n3)c2)CC1 [Compound A, [8-(4-Methanesulfonyl-phenyl)-[1,2,4]triazolo[1,5-a]pyridin-2-yl]-[3-(4-methyl-piperazin-1-yl)-phenyl]-amine]
air pouch fluid IL-6 expression [1]: inhibit the expression of IL-6 to below that of Dex | angiogenesis, total hemoglobin content (Drabkin's assay) [1]: angiogenesis was impacted | cellular accumulation in the air pouch (total cell count) [1]: significantly decreased cellular accumulation in the air pouch | total body mass [2]: not significantly different from that of vehicle-treated animals | paw pSTAT3 (phospho-STAT3; 55 mg/kg, p<0.01): significantly reduced | paw pSTAT3 (phospho-STAT3; 100 mg/kg, p<0.001): significantly reduced
